From PubChem BioAssay (NCI)
Several values for one entry are separate records, joined by “and”; a condition that tells them apart may be missing. Equal entries are not always repeated.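 Growth conditions: 96-well plates. Treatment: test compound, 48 hours, 5 concentrations. Analysis: linear interpolation between bracketing concentrations; unreached endpoints set to highest concentration. Abbreviation: GI50, concentration required for 50% inhibition of growth. TGI is the concentration that stops growth completely.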

Experiments:
Assay in all cases: DTP human tumour cell line panel, 48 h
[1] = tested on: SK-MEL-28 melanoma
[2] = tested on: NCI-H226 lung
[3] = tested on: UO-31 renal
[4] = tested on: NCI/ADR-RES ovarian
[5] = tested on: HL-60(TB) leukemia
[6] = tested on: M14 melanoma
[7] = tested on: SNB-19 CNS
[8] = tested on: NCI-H522 lung
[9] = tested on: K-562 leukemia
[10] = tested on: SK-MEL-2 melanoma

Structure (SMILES)	TGI [1]	TGI [2]	TGI [3]	TGI [4]	TGI [5]	TGI [6]	TGI [7]	TGI [8]	TGI [9]	TGI [10]	GI50 [1]	GI50 [2]	GI50 [3]	GI50 [4]	GI50 [5]	GI50 [6]	GI50 [7]	GI50 [9]	GI50 [10]	GI50 [8]
O=c1cc(N=Nc2ccc(O)cc2)[nH]c(=O)[nH]1	> 100 µM	> 100 µM	> 100 µM	> 100 µM	> 100 µM	> 100 µM	> 100 µM	> 100 µM	> 100 µM	> 100 µM										
CC(C)(C#N)c1cc(C(=O)Nc2cc(Nc3ncccc3-c3ncnc4nc[nH]c34)ccc2F)cc(C(F)(F)F)c1		> 6.4 µM		> 10 µM	> 10 µM	0.862 µM	> 10 µM	> 6.56 µM	> 10 µM	> 2.08 µM	0.107 µM	0.289 µM	0.189 µM	1.62 µM	0.526 µM	0.101 µM	> 2.15 µM	0.345 µM	0.315 µM	
CCC(/C=C/c1ccccc1)=N\Nc1ccc(Cl)c(Cl)c1	> 100 µM	72.7 µM	57.9 µM	> 100 µM	72.5 µM	> 100 µM	> 100 µM	46.1 µM	> 100 µM	40.9 µM										
CC(C)c1ccc(Nc2nccc(-c3cnn4ncccc34)n2)cc1	1.6 µM	2.45 µM	> 9.35 µM	5.27 µM	4.12 µM	2.48 µM	> 25 µM	3.35 µM	> 25 µM	1.13 µM	0.422 µM	0.227 µM	0.804 µM	0.584 µM	1.32 µM	0.688 µM	0.842 µM	1.19 µM	0.411 µM	0.564 µM
COc1ccc2c(c1)C(C)Cc1c(Cl)nc(C)nc1N2C (stereo not given)	38.5 µM	40.3 µM	36.1 µM	16.7 µM	> 100 µM	12.4 µM	29.5 µM	5.92 µM	> 100 µM	29.5 µM	3.4 µM	5.83 µM	3.99 µM	1.7 µM	2.54 µM	1.34 µM	3.48 µM	0.713 µM	10.6 µM	0.763 µM
CCCc1cc(=O)n2c(C(=O)Nc3ccccc3OC)c(C(=O)Nc3ccc(F)cc3)sc2n1	61.8 µM	6.96 µM	81.8 µM	> 160 µM	> 160 µM	110 µM	68.5 µM	68 µM	33.1 µM	29.6 µM	22 µM	0.802 µM	23.4 µM	39.2 µM	37.4 µM	23.3 µM	23.1 µM	4.64 µM	7.53 µM	17.7 µM
CN(C)c1ccc(C(=C2C=CC(=[N+](C)C)C=C2)c2ccc(N(C)C)cc2)cc1	1.09 µM and 1.9 µM		1.23 µM and 1.01 µM	2 µM	0.493 µM and 0.173 µM	0.598 µM and 1.39 µM	1.48 µM and 1.71 µM		1.1 µM and 0.143 µM	0.472 µM and 0.482 µM	0.219 µM		0.284 µM	0.41 µM	0.16 µM	0.14 µM	0.222 µM			
CCCOC(=O)CCn1c(SC)nc2[nH]cc(-c3ccccc3)c2c1=O	58.8 µM	61.2 µM	75.5 µM	> 100 µM	23.2 µM	> 100 µM	> 100 µM	32.5 µM	43.1 µM	63.5 µM	20.3 µM	18.9 µM	23.9 µM	25.4 µM	1.77 µM	15.6 µM	31.7 µM	3.95 µM	25.5 µM	11 µM
COc1cc(C2C3=C(COC3=O)Nc3cc4c(cc32)CCC4)cc2c1OCO2 (stereo not given)	24.4 µM	1.6 µM	26.5 µM	0.881 µM	0.724 µM	3.48 µM	23.3 µM	0.0562 µM	12.3 µM	3.47 µM	0.0691 µM	0.0391 µM	1.05 µM	0.0345 µM	0.033 µM	0.0743 µM	0.0724 µM	0.0375 µM	0.0989 µM	0.02 µM
COc1cc2c3c(n(C)c(=O)c2cc1OC)-c1cc2c(cc1/C3=C\C(N)CN)OCO2 (stereo not given)	41.8 µM	> 22.4 µM	> 36.5 µM	> 100 µM	> 100 µM	7.26 µM	> 49.3 µM		> 71.5 µM	> 22.8 µM	4.45 µM	1.89 µM	4.44 µM	> 74.8 µM	8.69 µM	2.23 µM	1.36 µM	3.74 µM	4.71 µM	0.394 µM
Nc1ccc(-c2ccc(N)cc2I)c(I)c1	38.6 µM	45.4 µM	26 µM	70 µM	47.6 µM	34.4 µM	77.3 µM	36.7 µM	39.1 µM	37.4 µM	14.1 µM	17.2 µM	10.6 µM	19 µM	18.4 µM	12.2 µM	19 µM	5.89 µM	15.9 µM	16.4 µM
CCCOc1nc(SCCC)nc2c1cnn2-c1ccccc1	> 100 µM	> 100 µM	> 100 µM	> 100 µM	> 100 µM	> 100 µM	> 100 µM		> 100 µM		> 100 µM	> 100 µM	> 100 µM	> 100 µM	38 µM	> 100 µM	> 100 µM	> 100 µM		
COCCNc1cc(NC(=O)N2CCCc3cc(CN4CCN(C)CC4=O)c(C=O)nc32)ncc1C#N	> 50 µM	> 50 µM	> 50 µM	> 50 µM	> 50 µM	> 50 µM	> 50 µM	> 50 µM		> 50 µM	> 50 µM	> 50 µM	> 50 µM	> 50 µM	> 50 µM	> 50 µM	> 50 µM		36.6 µM	> 50 µM
CC(C)C[C@H](NC(=O)[C@@H](O)[C@H](N)Cc1ccc([N+](=O)[O-])cc1)C(=O)O	> 25 µM	> 25 µM	> 25 µM	> 25 µM		> 25 µM	> 25 µM	> 25 µM	> 25 µM	> 25 µM	> 25 µM	> 25 µM	> 25 µM	> 25 µM		> 25 µM	> 25 µM	> 25 µM	> 25 µM	> 25 µM
N=C(N)c1ccc(COc2ccccc2OCc2ccc(C(=N)N)cc2)cc1	> 100 µM	81 µM	> 100 µM	> 100 µM		> 100 µM	> 100 µM	> 100 µM	> 100 µM	> 100 µM	70 µM	28.6 µM	> 100 µM	> 100 µM		51.2 µM	41.4 µM	34.8 µM	> 100 µM	99.5 µM
Clc1nc(Cl)c(-c2ccccc2)c(Cl)n1	19.3 µM	5.76 µM	9.08 µM	11 µM	4.77 µM	3.33 µM	28.5 µM	3.24 µM	> 35 µM											
CCOc1ccccc1/C=N\N=C(\N)N/N=C/c1ccccc1OCC	> 100 µM	> 100 µM	> 100 µM	> 100 µM	8.92 µM		> 100 µM		> 100 µM	> 100 µM	4.51 µM	5.55 µM	2.97 µM	2.62 µM	1.33 µM		4.49 µM	0.707 µM	1.26 µM	
O=C(CCCSc1nc(-c2ccccc2)cc(-c2ccc(Cl)cc2)n1)NO	15.3 µM	17.1 µM	2.1 µM	2.58 µM	9.26 µM		14.9 µM	10.4 µM	26.1 µM	18.5 µM	3.51 µM	3.12 µM	0.352 µM	0.351 µM	2.35 µM		3.12 µM	1.51 µM	4.39 µM	1.96 µM
CCOC(=O)c1nc(Nc2ccc(Cl)cc2)c2ccccc2n1	17.6 µM		18.8 µM	22.9 µM	> 50 µM	30.6 µM	43.2 µM	25.8 µM	> 50 µM	30.4 µM	7.5 µM		8.87 µM	13.2 µM	> 50 µM	12.4 µM	13.5 µM	46 µM	13.2 µM	10.5 µM
CCN(CC)c1ccc(C(=N)c2ccc(N(C)C)cc2)cc1	7.13 µM	5.46 µM	7.73 µM	2.94 µM	15.9 µM	2.06 µM	10.1 µM		12.8 µM		0.384 µM	1.5 µM	1.45 µM	0.187 µM	0.886 µM	0.167 µM	2.19 µM	0.127 µM		
Cc1cn2c(/C=N/Nc3ccccn3)c(-c3ccc(Cl)c([N+](=O)[O-])c3)nc2s1	> 50 µM		> 50 µM	30.9 µM	> 50 µM	23 µM	32.7 µM	26.5 µM	> 50 µM	> 50 µM	26.5 µM		13.1 µM	11.3 µM	> 50 µM	10.8 µM	12.4 µM	26.7 µM	21.2 µM	7.35 µM
